Assay results reported in patent US20110039721A1, “METHOD FOR PREDICTION ABOUT CARCINOGENICITY OF SUBSTANCE IN RODENT” (Chemicals Evaluation and Research Institute, priority 2007, published 2011).

Tests used:
liver = settings: classification of the substance (Cr+/Cr−); cited from earlier work
rodent = settings: classification of the substance (C+/C−); cited from earlier work
[1] = classification of the substance (M+/M−); cited from earlier work
[2] = test system: mRNA expressed from the genes (A) to (D) in rat liver; test: Behavior of genes (mRNA expression level, oligo-DNA microarray) in rat liver after 28-day oral administration; assay type: in vivo
Summary of the method: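 Male F344 SPF rats, 5 weeks old, four per group, received carcinogens, non-carcinogens or solvent vehicle by oral gavage once daily for 28 days. Liver total RNA was then extracted. Changes of ≥1.5-fold or ≤1/1.5 versus vehicle control, in a consistent direction across carcinogens, counted as significant.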

[3] = gene group (A), Unigene No. Rn.167075
[4] = gene group (C), Unigene No. Rn.120914

Clc1ccc(C(c2ccc(Cl)cc2)C(Cl)(Cl)Cl)cc1 [TS016, Dichloro-diphenyl-trichloroethane]
Liver carcinogenicity (liver): Cr+
Carcinogenicity (rodent): C+
Mutagenicity by Ames test [1]: M−
Behavior of gene caused by administration of chemical substance, Gene No. 4846 ([2]; gene group (A), Unigene No. Rn.144554): −
Behavior of gene caused by administration of chemical substance, Gene No. 2026 [2, 3]: −
Behavior of gene caused by administration of chemical substance, Gene No. 4218 [2, 3]: −
Behavior of gene caused by administration of chemical substance, Gene No. 6182 ([2]; gene group (A), Unigene No. Rn.5834): +
Behavior of gene caused by administration of chemical substance, Gene No. 5600 ([2]; gene group (A), Unigene No. Rn.9836): −
Behavior of gene caused by administration of chemical substance, Gene No. 1494 ([2]; gene group (B), Unigene No. Rn.1430): +
Behavior of gene caused by administration of chemical substance, Gene No. 2045 ([2]; gene group (B), Unigene No. Rn.19329): +
Behavior of gene caused by administration of chemical substance, Gene No. 2203 ([2]; gene group (B), Unigene No. Rn.21240): +
Behavior of gene caused by administration of chemical substance, Gene No. 533 ([2]; gene group (C), Unigene No. Rn.106184): +
Behavior of gene caused by administration of chemical substance, Gene No. 725 ([2]; gene group (C), Unigene No. Rn.108075): −
Behavior of gene caused by administration of chemical substance, Gene No. 1163 ([2]; gene group (C), Unigene No. Rn.11766): −
Behavior of gene caused by administration of chemical substance, Gene No. 4973 ([2]; gene group (C), Unigene No. Rn.118529): −
Behavior of gene caused by administration of chemical substance, Gene No. 4095 ([2]; gene group (C), Unigene No. Rn.119024): +
Behavior of gene caused by administration of chemical substance, Gene No. 1334 [2, 4]: −
Behavior of gene caused by administration of chemical substance, Gene No. 6620 [2, 4]: −
Behavior of gene caused by administration of chemical substance, Gene No. 6303 ([2]; gene group (C), Unigene No. Rn.123063): −
Behavior of gene caused by administration of chemical substance, Gene No. 5878 ([2]; gene group (C), Unigene No. Rn.143213): −
Behavior of gene caused by administration of chemical substance, Gene No. 1131 ([2]; gene group (C), Unigene No. Rn.144946): −
Behavior of gene caused by administration of chemical substance, Gene No. 1562 ([2]; gene group (C), Unigene No. Rn.14744): −
Behavior of gene caused by administration of chemical substance, Gene No. 1741 ([2]; gene group (C), Unigene No. Rn.1647): +
Behavior of gene caused by administration of chemical substance, Gene No. 893 ([2]; gene group (C), Unigene No. Rn.164817): −
Behavior of gene caused by administration of chemical substance, Gene No. 6026 ([2]; gene group (C), Unigene No. Rn.167685): −
Behavior of gene caused by administration of chemical substance, Gene No. 154 ([2]; gene group (C), Unigene No. Rn.185941): −
Behavior of gene caused by administration of chemical substance, Gene No. 1993 ([2]; gene group (C), Unigene No. Rn.18728): −
Behavior of gene caused by administration of chemical substance, Gene No. 813 ([2]; gene group (C), Unigene No. Rn.201760): −
Behavior of gene caused by administration of chemical substance, Gene No. 2494 ([2]; gene group (C), Unigene No. Rn.23969): +
Behavior of gene caused by administration of chemical substance, Gene No. 2546 ([2]; gene group (C), Unigene No. Rn.24561): −
Behavior of gene caused by administration of chemical substance, Gene No. 3776 ([2]; gene group (C), Unigene No. Rn.43232): −
Behavior of gene caused by administration of chemical substance, Gene No. 3929 ([2]; gene group (C), Unigene No. Rn.4620): −
Behavior of gene caused by administration of chemical substance, Gene No. 1119 ([2]; gene group (C), Unigene No. Rn.9757): −
Behavior of gene caused by administration of chemical substance, Gene No. 6742 ([2]; gene group (C), Unigene No. Rn.9779): +
Behavior of gene caused by administration of chemical substance, Gene No. 5634 ([2]; gene group (C), Unigene No. Rn.9862): +
Behavior of gene caused by administration of chemical substance, Gene No. 5726 ([2]; gene group (D), Unigene No. Rn.9939): −
